Literature values in patent US20100330171A1, “Dietary Supplement for Eye Health” (priority 2008, published 2010).

How the values were obtained:
[1] = system: phosophoinositide-dependent protein kinase, Akt, apoptosis signal-regulating kinase, p38; details: fibroblast growth factor-treated HUVEC
[2] = system: human umbilical vein endothelial cells (HUVEC)
[3] = system: tube formation; details: Matigel-induced tube formation assay
[4] = biological target: VEGFR-2 (Homo sapiens, UniProt P35968); details: serum concentrations 0.01-1 microM
VEGFR-2, sequence (P35968 20-1356, species assumed): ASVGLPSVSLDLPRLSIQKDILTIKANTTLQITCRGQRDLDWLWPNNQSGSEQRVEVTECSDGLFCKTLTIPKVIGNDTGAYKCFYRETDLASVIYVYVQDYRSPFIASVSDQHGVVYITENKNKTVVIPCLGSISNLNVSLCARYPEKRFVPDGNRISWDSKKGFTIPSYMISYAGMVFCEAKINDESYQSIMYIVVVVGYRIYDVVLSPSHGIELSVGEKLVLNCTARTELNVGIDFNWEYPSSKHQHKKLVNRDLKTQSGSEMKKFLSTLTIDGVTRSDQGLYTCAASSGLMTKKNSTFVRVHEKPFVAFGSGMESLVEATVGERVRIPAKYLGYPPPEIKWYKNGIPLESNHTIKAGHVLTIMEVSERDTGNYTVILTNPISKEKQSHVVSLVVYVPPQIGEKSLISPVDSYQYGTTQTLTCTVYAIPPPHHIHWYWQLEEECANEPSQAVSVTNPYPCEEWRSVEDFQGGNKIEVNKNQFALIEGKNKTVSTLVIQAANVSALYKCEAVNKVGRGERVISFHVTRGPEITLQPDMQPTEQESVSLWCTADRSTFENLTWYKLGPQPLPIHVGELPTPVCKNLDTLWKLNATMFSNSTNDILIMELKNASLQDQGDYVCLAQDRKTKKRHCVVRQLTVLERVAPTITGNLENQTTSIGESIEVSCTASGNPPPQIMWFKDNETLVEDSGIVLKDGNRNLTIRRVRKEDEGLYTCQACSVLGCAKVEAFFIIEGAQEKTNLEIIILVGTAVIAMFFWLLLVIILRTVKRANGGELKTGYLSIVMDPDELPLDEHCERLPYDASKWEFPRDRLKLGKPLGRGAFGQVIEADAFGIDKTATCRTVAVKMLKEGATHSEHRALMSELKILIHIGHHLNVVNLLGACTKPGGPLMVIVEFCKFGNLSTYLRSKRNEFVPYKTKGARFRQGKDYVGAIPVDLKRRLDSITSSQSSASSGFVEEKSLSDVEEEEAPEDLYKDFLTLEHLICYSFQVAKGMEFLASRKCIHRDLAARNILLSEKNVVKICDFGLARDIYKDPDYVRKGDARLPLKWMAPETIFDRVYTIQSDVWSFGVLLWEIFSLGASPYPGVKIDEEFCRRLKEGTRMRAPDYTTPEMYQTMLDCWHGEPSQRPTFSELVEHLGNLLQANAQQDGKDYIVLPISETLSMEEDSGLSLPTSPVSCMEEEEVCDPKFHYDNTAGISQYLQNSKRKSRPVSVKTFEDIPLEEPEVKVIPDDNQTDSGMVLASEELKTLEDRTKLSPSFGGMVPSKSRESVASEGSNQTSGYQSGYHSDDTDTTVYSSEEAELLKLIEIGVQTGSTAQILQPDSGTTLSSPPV

[5] = system: human colon cancer cell line; details: by blocking the induction of VEGF
[6] = biological target: T1, leukocyte elastase (Homo sapiens, UniProt P08246)
T1 sequence (P08246 30-267): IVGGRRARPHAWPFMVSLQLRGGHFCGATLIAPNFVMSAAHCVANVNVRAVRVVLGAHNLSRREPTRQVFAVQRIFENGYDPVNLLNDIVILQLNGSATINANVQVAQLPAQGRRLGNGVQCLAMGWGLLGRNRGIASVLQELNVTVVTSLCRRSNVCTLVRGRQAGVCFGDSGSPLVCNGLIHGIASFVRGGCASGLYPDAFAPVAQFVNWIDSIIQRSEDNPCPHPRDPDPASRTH

[7] = system: bovine endothelial cells; details: in vitro, bovine endothelial cells stimulated by FGF-2
[8] = system: TNF-alpha
[9] = biological target: MMP-9 (Homo sapiens, UniProt P14780)
MMP-9, sequence (P14780 94-707, species assumed): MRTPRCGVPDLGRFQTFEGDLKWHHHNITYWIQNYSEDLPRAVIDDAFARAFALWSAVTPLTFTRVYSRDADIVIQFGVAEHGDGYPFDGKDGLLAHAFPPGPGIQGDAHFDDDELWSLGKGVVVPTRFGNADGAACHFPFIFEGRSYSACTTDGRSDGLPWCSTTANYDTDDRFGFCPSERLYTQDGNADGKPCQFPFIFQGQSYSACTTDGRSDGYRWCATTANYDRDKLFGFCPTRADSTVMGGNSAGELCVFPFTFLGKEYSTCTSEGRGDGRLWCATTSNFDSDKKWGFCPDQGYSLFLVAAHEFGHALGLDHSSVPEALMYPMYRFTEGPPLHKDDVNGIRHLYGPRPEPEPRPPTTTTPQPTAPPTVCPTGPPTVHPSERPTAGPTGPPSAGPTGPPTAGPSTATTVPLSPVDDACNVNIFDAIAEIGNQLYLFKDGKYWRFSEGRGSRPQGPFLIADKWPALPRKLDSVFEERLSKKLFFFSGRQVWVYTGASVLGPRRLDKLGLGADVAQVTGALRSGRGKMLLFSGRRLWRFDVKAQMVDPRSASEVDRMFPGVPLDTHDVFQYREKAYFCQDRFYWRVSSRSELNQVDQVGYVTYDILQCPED

[10] = system: angiogenesis; details: chick chorioallantoic membrane assay
[11] = compared with ascorbic acid (vitamin C) and tocopherol (vitamin E)

Row | Molecule | phosphorylation of apoptosis signal-regulating kinase and p38 [1] | phosphorylation of phosophoinositide-dependent protein kinase and Akt [1] | suppression of fibroblast growth factor-induced proliferation, migration and tube formation [2] | tube formation [3] | inhibition of VEGF-dependent phosphorylation of VEGFR-2 [4] | microvessel density [5] | inhibition of leukocyte elastase [6] | endothelial cell growth [7] | gene expression of TNF-alpha and the cytokines IL-1 beta and IL-10 induced by TNF-alpha [8] | inhibition of MMP-9 [9] | formation of new blood vessels [10] | quenching reactive oxygen species [11]
1 | CC(C)=CCC/C(C)=C/CC/C(C)=C/CC[C@]1(C)CCc2cc(O)c(C)c(C)c2O1 [γ-tocotrienol] | increasing | suppressing | highest activity |  |  |  |  |  |  |  |  | 
2 | O=C(O[C@@H]1Cc2c(O)cc(O)cc2O[C@H]1c1ccc(O)c(O)c1)c1cc(O)c(O)c(O)c1 [CG, catechin-3 gallate] |  |  |  | almost completely abolished | inhibit |  |  |  |  |  |  | 
3 | Epigallocatechin-3-gallate [EGCG] |  |  |  | almost completely abolished | inhibit | reduces | inhibit | suppress | block | inhibits | block | more effective
